Assay results taken from PubChem BioAssay AID2060893 (Molecular Pharmacology Branch, DTP, NCI, 2025).

System: K86415-001-R-J1-PDC complex spheroids, viability
Assay: Anticancer human tumor K86415-001-R-J1-PDC patient-derived lung adenocarcinoma cell line growth inhibition [RAS]
Settings: for IC50: curve of first compound; for viability, T/C: stronger effect = lower value
In short: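 Multi-cell-type spheroids: tumor cells plus HUVEC endothelial cells and mesenchymal stem cells. RAS-pathway inhibitors were combined with targeted agents, each dosed in half-log steps down from clinical Cmax, or from 10 microM when Cmax was unknown.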
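Also: spheroids exposed to agents for seven days before readout.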

With `CC(=O)OC12COC1CC(O)C1(C)C(=O)C(O)C3=C(C)C(OC(=O)C(O)C(NC(=O)OC(C)(C)C)c4ccccc4)CC(O)(C(OC(=O)c4ccccc4)C21)C3(C)C` (centres undefined) + C=CC(=O)N1CCN(c2nc(OCC3CCCN3C)nc3c(F)c(-c4nc(N)cc(C)c4C(F)(F)F)c(Cl)cc23)C(C)C1 the IC50 (second compound 0.00316 µM) was less than 31.6 nM, the IC50 (second compound 0.01 µM) was less than 31.6 nM and the IC50 (second compound 0.0316 µM) was less than 31.6 nM. The IC50 (second compound 0.1 µM) was less than 31.6 nM, the IC50 (second compound 0.316 µM) was less than 31.6 nM and the IC50 (second compound 1 µM) was less than 31.6 nM. It also gave a viability, T/C (second compound 0.00316 µM, first compound 0.0316 µM) of 15.6%, a viability, T/C (second compound 0.00316 µM, first compound 0.1 µM) of 15.6% and a viability, T/C (second compound 0.00316 µM, first compound 0.316 µM) of 16.5%. It also gave a viability, T/C (second compound 0.00316 µM, first compound 1 µM) of 15.9%, a viability, T/C (second compound 0.00316 µM, first compound 3.16 µM) of 15.5% and a viability, T/C (second compound 0.00316 µM, first compound 10 µM) of 15.2%. For the same compound, the viability, T/C (second compound 0.01 µM, first compound 0.0316 µM) was 13.9%, the viability, T/C (second compound 0.01 µM, first compound 0.1 µM) was 14.1% and the viability, T/C (second compound 0.01 µM, first compound 0.316 µM) was 12.5%. It also gave a viability, T/C (second compound 0.01 µM, first compound 1 µM) of 13.2%, a viability, T/C (second compound 0.01 µM, first compound 3.16 µM) of 10.8% and a viability, T/C (second compound 0.01 µM, first compound 10 µM) of 9.16%. For the same compound, the viability, T/C (second compound 0.0316 µM, first compound 0.0316 µM) was 11.1%, the viability, T/C (second compound 0.0316 µM, first compound 0.1 µM) was 10.8% and the viability, T/C (second compound 0.0316 µM, first compound 0.316 µM) was 9.94%. It also gave a viability, T/C (second compound 0.0316 µM, first compound 1 µM) of 9.79%, a viability, T/C (second compound 0.0316 µM, first compound 3.16 µM) of 10.3% and a viability, T/C (second compound 0.0316 µM, first compound 10 µM) of 8.13%. It also gave a viability, T/C (second compound 0.1 µM, first compound 0.0316 µM) of 9.79%, a viability, T/C (second compound 0.1 µM, first compound 0.1 µM) of 11.2% and a viability, T/C (second compound 0.1 µM, first compound 0.316 µM) of 9.84%. It also gave a viability, T/C (second compound 0.1 µM, first compound 1 µM) of 9.57%, a viability, T/C (second compound 0.1 µM, first compound 3.16 µM) of 11.5% and a viability, T/C (second compound 0.1 µM, first compound 10 µM) of 9.04%. It also gave a viability, T/C (second compound 0.316 µM, first compound 0.0316 µM) of 7.89%, a viability, T/C (second compound 0.316 µM, first compound 0.1 µM) of 9.45% and a viability, T/C (second compound 0.316 µM, first compound 0.316 µM) of 11.5%. The viability, T/C (second compound 0.316 µM, first compound 1 µM) was 9.36%, the viability, T/C (second compound 0.316 µM, first compound 3.16 µM) was 10.3% and the viability, T/C (second compound 0.316 µM, first compound 10 µM) was 8.4%. The viability, T/C (second compound 1 µM, first compound 0.0316 µM) was 8.13%, the viability, T/C (second compound 1 µM, first compound 0.1 µM) was 10.6% and the viability, T/C (second compound 1 µM, first compound 0.316 µM) was 12.8%. The viability, T/C (second compound 1 µM, first compound 1 µM) was 9.39%, the viability, T/C (second compound 1 µM, first compound 3.16 µM) was 11.2% and the viability, T/C (second compound 1 µM, first compound 10 µM) was 10.5%.

`C=CC(=O)N1CCN(c2nc(OCC3CCCN3C)nc3c(F)c(-c4nc(N)cc(C)c4C(F)(F)F)c(Cl)cc23)C(C)C1` (centres undefined) + CCn1c(-c2cc(N3CCN(C)CC3)cnc2C(C)OC)c2c3cc(ccc31)-c1csc(n1)CC(NC(=O)C1CC1C)C(=O)N1CCCC(N1)C(=O)OCC(C)(C)C2 was tested, and the IC50 (second compound 0.000949 µM) was less than 3.16 nM, the IC50 (second compound 0.003 µM) was less than 3.16 nM and the IC50 (second compound 0.00949 µM) was less than 3.16 nM. The IC50 (second compound 0.03 µM) was less than 3.16 nM, the IC50 (second compound 0.0949 µM) was less than 3.16 nM and the IC50 (second compound 0.3 µM) was less than 3.16 nM. For the same compound, the viability, T/C (second compound 0.000949 µM, first compound 0.00316 µM) was 14%, the viability, T/C (second compound 0.000949 µM, first compound 0.01 µM) was 11.3% and the viability, T/C (second compound 0.000949 µM, first compound 0.0316 µM) was 7.59%. The viability, T/C (second compound 0.000949 µM, first compound 0.1 µM) was 8%, the viability, T/C (second compound 0.000949 µM, first compound 0.316 µM) was 8.62% and the viability, T/C (second compound 0.000949 µM, first compound 1 µM) was 8.31%. It also gave a viability, T/C (second compound 0.003 µM, first compound 0.00316 µM) of 9.34%, a viability, T/C (second compound 0.003 µM, first compound 0.01 µM) of 6.02% and a viability, T/C (second compound 0.003 µM, first compound 0.0316 µM) of 5.36%. For the same compound, the viability, T/C (second compound 0.003 µM, first compound 0.1 µM) was 5.95%, the viability, T/C (second compound 0.003 µM, first compound 0.316 µM) was 6.92% and the viability, T/C (second compound 0.003 µM, first compound 1 µM) was 5.35%. The viability, T/C (second compound 0.00949 µM, first compound 0.00316 µM) was 4.68%, the viability, T/C (second compound 0.00949 µM, first compound 0.01 µM) was 4.68% and the viability, T/C (second compound 0.00949 µM, first compound 0.0316 µM) was 4.36%. It also gave a viability, T/C (second compound 0.00949 µM, first compound 0.1 µM) of 4.25%, a viability, T/C (second compound 0.00949 µM, first compound 0.316 µM) of 4.08% and a viability, T/C (second compound 0.00949 µM, first compound 1 µM) of 3.96%. For the same compound, the viability, T/C (second compound 0.03 µM, first compound 0.00316 µM) was 3.4%, the viability, T/C (second compound 0.03 µM, first compound 0.01 µM) was 3.36% and the viability, T/C (second compound 0.03 µM, first compound 0.0316 µM) was 2.8%. It also gave a viability, T/C (second compound 0.03 µM, first compound 0.1 µM) of 2.79%, a viability, T/C (second compound 0.03 µM, first compound 0.316 µM) of 3.36% and a viability, T/C (second compound 0.03 µM, first compound 1 µM) of 3.36%. The viability, T/C (second compound 0.0949 µM, first compound 0.00316 µM) was 2.57%, the viability, T/C (second compound 0.0949 µM, first compound 0.01 µM) was 2.3% and the viability, T/C (second compound 0.0949 µM, first compound 0.0316 µM) was 3.16%. For the same compound, the viability, T/C (second compound 0.0949 µM, first compound 0.1 µM) was 2.37%, the viability, T/C (second compound 0.0949 µM, first compound 0.316 µM) was 2.22% and the viability, T/C (second compound 0.0949 µM, first compound 1 µM) was 3.4%. It also gave a viability, T/C (second compound 0.3 µM, first compound 0.00316 µM) of 2.23%, a viability, T/C (second compound 0.3 µM, first compound 0.01 µM) of 2.68% and a viability, T/C (second compound 0.3 µM, first compound 0.0316 µM) of 2.5%. The viability, T/C (second compound 0.3 µM, first compound 0.1 µM) was 2.49%, the viability, T/C (second compound 0.3 µM, first compound 0.316 µM) was 3.18% and the viability, T/C (second compound 0.3 µM, first compound 1 µM) was 2.66%.
